Results taken from ChEMBL document CHEMBL2034915, “Ring Structure and Aromatic Substituent Effects on the pK a of the Benzoxaborole Pharmacophore” (ACS Med Chem Lett, 2012).
Calls of active or inactive are those of the source. The rule behind the calls is not given here.

How the values were obtained:
[1] = Binding affinity to adenosine monophosphate in phosphate buffer by ARS competition assay at pH 7.4
[2] = Dissociation constant, pKa of the compound in aqueous solution by spectrophotometry; assay type: physicochemical
[3] = Dissociation constant, pKa of the compound in aqueous solution by [11]B-NMR analysis; assay type: physicochemical

## OB1OCc2cc(C(F)(F)F)ccc21
[1]
  Activity: Active

## CC1(C)OB(O)c2ccccc21
[2]
  pKa: 8.32

## OB1OCc2ccccc21 [BENZOXABOROLE]
[3]
  pKa: 7.2
[2]
  pKa: 7.34
[1]
  Activity: Active

## OB1OCCc2ccccc21 [BENZOXABORIN]
[3]
  pKa: 8.4
[2]
  pKa: 8.4
